According to patent publication US4309559A, “Sulphonamides useful as pesticides” (FBC Limited, priority 1977, dated 1982):

Key:
Type in all cases: in vivo
[1] = tested on: Oats (Avena sativa); assay: Soil incorporation (attaclay/sand dust), growth regulatory or herbicidal effects, oats; conditions: 504 h, soil incorporation 26 ppm, 21 days, 0=no effect, 100=complete kill, read-out: growth regulatory or herbicidal effect score
Summary of the method: (§1)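 Active ingredient formulated as attaclay/sand dust and mixed into John Innes I potting compost at 26 or 130 ppm w/v (about 11.2 or 56 kg a.i./ha cultivated to 5 cm). Seeds sown in treated soil, grown 21 days at 22° C, 65-85% RH, 14 h light at 13,000 lux; visual score 0-100 versus untreated control.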

[2] = tested on: Ryegrass (Lolium perenne); assay: Soil incorporation (attaclay/sand dust), growth regulatory or herbicidal effects, ryegrass; conditions: 504 h, soil incorporation 26 ppm, 21 days, 0=no effect, 100=complete kill, read-out: growth regulatory or herbicidal effect score
Summary of the method: as §1

[3] = tested on: Wheat (Triticum aestivum); assay: Pre-emergence soil surface spray, wheat; conditions: soil surface spray 2.8 kg/ha, 21 days, 0=no effect, 100=complete kill
Summary of the method: (§2)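 Visual score 0-100 (0 = no effect, 100 = complete kill) relative to untreated control, taken 21 days after a pre-emergence soil-surface spray at 2.8 kg a.i./ha in 450 l/ha. Compound formulated in 1:1 aqueous acetone; growth at 22° C., RH 65-85%, 14 h/day light at 17,000 lux.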

[4] = tested on: Barley (Hordeum vulgare); assay: Pre-emergence soil surface spray, barley; conditions: soil surface spray 2.8 kg/ha, 21 days, 0=no effect, 100=complete kill
Summary of the method: as §2

[5] = tested on: Wild Oat (Avena fatua); assay: Pre-emergence soil surface spray, wild oat; conditions: soil surface spray 2.8 kg/ha, 21 days, 0=no effect, 100=complete kill
Summary of the method: as §2

[6] = tested on: Blackgrass (Alopecurus myosuroides); assay: Pre-emergence soil surface spray, blackgrass; conditions: soil surface spray 2.8 kg/ha, 21 days, 0=no effect, 100=complete kill
Summary of the method: as §2

[7] = tested on: Barnyardgrass (Echinochloa crus-galli); assay: Pre-emergence soil surface spray, barnyardgrass; conditions: soil surface spray 2.8 kg/ha, 21 days, 0=no effect, 100=complete kill
Summary of the method: as §2

[8] = tested on: Pythium ultimum; assay: Fungal growth on the surface of soil infected with damping-off disease organism; conditions: 6 days, 25° C., 0-8 scale

CCCS(=O)(=O)N(c1c(C)cccc1C)C(C)C(=O)OCC (stereo not drawn) [Example 24, N-(1-[ethoxycarbonyl]ethyl)-2',6'-dimethyl-1-propanesulphonanilide] was tested, and the plant injury at 26 µg/mL [1] was 60%, the pest or weed control at 26 µg/mL [2] was 100% and the “growth regulatory or herbicidal effect score” value [3] was 10. For the same compound, the “growth regulatory or herbicidal effect score” value [4] was 30, the “growth regulatory or herbicidal effect score” value [5] was 100 and the “growth regulatory or herbicidal effect score” value [6] was 100. For the same compound, the “growth regulatory or herbicidal effect score” value [7] was 80, the “Mycelial Control Score” value ([8]; 30 ppm) was 0 (<20% inhibition) and the “Mycelial Control Score” value ([8]; 100 ppm) was 0 (<20% inhibition).
